Test results published in ChEMBL document CHEMBL1201862, “PubChem BioAssay data set” (2004).
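How tested: cells in 96-well plates exposed to compound for 48 hours at five concentrations. At the GI50, growth is halved.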 The source made the active and inactive calls. No stated cut-off is given here; in the data, active = GI50 up to about 1.1 µM and inactive = higher.

What was measured:
Assay in all cases: NCI tumour cell line growth inhibition, 48 h
786-0 = tested on: 786-0
A498 = tested on: A498
A549 = tested on: A549
ACHN = tested on: ACHN
CAKI-1 = tested on: CAKI-1
CCRF-CEM = tested on: CCRF-CEM
COLO 205 = tested on: COLO 205
DLD-1 = tested on: DLD-1
DMS-114 = tested on: DMS-114
DMS-273 = tested on: DMS-273
EKVX = tested on: EKVX
HCC 2998 = tested on: HCC 2998
HCT-116 = tested on: HCT-116
HCT-15 = tested on: HCT-15
HL-60 = tested on: HL-60
HOP-62 = tested on: HOP-62
HOP-92 = tested on: HOP-92
HT-29 = tested on: HT-29
IGROV-1 = tested on: IGROV-1
K562 = tested on: K562
KM-20L2 = tested on: KM-20L2
KM12 = tested on: KM12
LOX IMVI = tested on: LOX IMVI
LXFL 529 = tested on: LXFL 529
M14 = tested on: M14
M19-MEL = tested on: M19-MEL
MOLT-4 = tested on: MOLT-4
Malme-3M = tested on: Malme-3M
NCI-H226 = tested on: NCI-H226
NCI-H23 = tested on: NCI-H23
NCI-H460 = tested on: NCI-H460
NCI-H522 = tested on: NCI-H522
OVCAR-3 = tested on: OVCAR-3
OVCAR-4 = tested on: OVCAR-4
OVCAR-5 = tested on: OVCAR-5
OVCAR-8 = tested on: OVCAR-8
RPMI-8226 = tested on: RPMI-8226
RXF 631 = tested on: RXF 631
SF-268 = tested on: SF-268
SF-295 = tested on: SF-295
SF-539 = tested on: SF-539
SK-MEL-28 = tested on: SK-MEL-28
SK-MEL-2 = tested on: SK-MEL-2
SK-MEL-5 = tested on: SK-MEL-5
SK-OV-3 = tested on: SK-OV-3
SN12C = tested on: SN12C
SNB-19 = tested on: SNB-19
SNB-75 = tested on: SNB-75
SW-620 = tested on: SW-620
TK-10 = tested on: TK-10
U-251 = tested on: U-251
UACC-257 = tested on: UACC-257
UACC-62 = tested on: UACC-62
UO-31 = tested on: UO-31
XF498 = tested on: XF498
HOP-18 = tested on: HOP-18
RXF 393 = tested on: RXF 393
SNB-78 = tested on: SNB-78
SR = tested on: SR

Measured: GI50

Cc1cc(N(CCC#N)CCC#N)ccc1CC1N=C(c2ccccc2)OC1=O (stereo not given)
> 100 µM: HCT-15
inactive: 786-0 > 100 µM | A498 > 100 µM | A549 > 100 µM | ACHN > 100 µM | CAKI-1 > 100 µM | CCRF-CEM > 100 µM | COLO 205 > 100 µM | DLD-1 > 100 µM | DMS-114 > 100 µM | DMS-273 > 100 µM | EKVX > 100 µM | HCC 2998 > 100 µM | HCT-116 > 100 µM | HL-60 > 100 µM | HOP-62 > 100 µM | HOP-92 > 100 µM | HT-29 > 100 µM | IGROV-1 > 100 µM | K562 > 100 µM | KM-20L2 > 100 µM | KM12 > 100 µM | LOX IMVI > 100 µM | LXFL 529 > 100 µM | M14 > 100 µM | M19-MEL > 100 µM | MOLT-4 > 100 µM | Malme-3M > 100 µM | NCI-H226 64.1 µM | NCI-H23 > 100 µM | NCI-H460 > 100 µM | NCI-H522 > 100 µM | OVCAR-3 > 100 µM | OVCAR-4 > 100 µM | OVCAR-5 > 100 µM | OVCAR-8 > 100 µM | RPMI-8226 > 100 µM | RXF 631 > 100 µM | SF-268 > 100 µM | SF-295 > 100 µM | SF-539 > 100 µM | SK-MEL-28 > 100 µM | SK-MEL-2 > 100 µM | SK-MEL-5 > 100 µM | SK-OV-3 > 100 µM | SN12C > 100 µM | SNB-19 > 100 µM | SNB-75 > 100 µM | SW-620 > 100 µM | TK-10 > 100 µM | U-251 > 100 µM | UACC-257 > 100 µM | UACC-62 > 100 µM | UO-31 > 100 µM | XF498 > 100 µM

COC(=O)C(=O)C(C(=O)C(=O)Nc1ccc(Cl)cc1C)c1nc2ccc(C(=O)c3ccccc3)cc2nc1O (stereo not given)
> 100 µM: HCT-15
inactive: 786-0 > 100 µM | A498 21.6 µM | A549 > 100 µM | ACHN 76.9 µM | CAKI-1 68.4 µM | CCRF-CEM 50.6 µM | COLO 205 > 100 µM | DLD-1 55.8 µM | DMS-114 36 µM | DMS-273 63.4 µM | EKVX > 100 µM | HCC 2998 98.9 µM | HCT-116 > 100 µM | HL-60 96.6 µM | HOP-18 > 100 µM | HOP-62 > 100 µM | HOP-92 49.8 µM | HT-29 > 100 µM | IGROV-1 > 100 µM | K562 29 µM | KM-20L2 > 100 µM | KM12 63 µM | LOX IMVI > 100 µM | LXFL 529 65.2 µM | M14 > 100 µM | M19-MEL > 100 µM | MOLT-4 51.1 µM | Malme-3M > 100 µM | NCI-H226 33.5 µM | NCI-H23 > 100 µM | NCI-H460 > 100 µM | NCI-H522 37 µM | OVCAR-3 > 100 µM | OVCAR-4 > 100 µM | OVCAR-5 83 µM | OVCAR-8 > 100 µM | RPMI-8226 > 100 µM | RXF 393 52.2 µM | RXF 631 > 100 µM | SF-268 > 100 µM | SF-295 > 100 µM | SF-539 58.5 µM | SK-MEL-2 > 100 µM | SK-OV-3 > 100 µM | SN12C > 100 µM | SNB-19 > 100 µM | SNB-75 31.5 µM | SNB-78 > 100 µM | SR 43.5 µM | SW-620 > 100 µM | TK-10 > 100 µM | U-251 > 100 µM | UACC-257 97.9 µM | UACC-62 61.9 µM | UO-31 49.1 µM

Cc1nc2nn(Cc3ccccc3)cc2c(=O)o1
inactive: 786-0 > 100 µM | A498 > 100 µM | A549 > 100 µM | ACHN > 100 µM | CCRF-CEM > 100 µM | COLO 205 > 100 µM | DLD-1 > 100 µM | DMS-114 > 100 µM | DMS-273 > 100 µM | EKVX > 100 µM | HCC 2998 > 100 µM | HCT-116 > 100 µM | HL-60 > 100 µM | HOP-62 > 100 µM | HT-29 > 100 µM | IGROV-1 > 100 µM | K562 > 100 µM | KM-20L2 > 100 µM | KM12 > 100 µM | LOX IMVI > 100 µM | LXFL 529 > 100 µM | M19-MEL > 100 µM | MOLT-4 > 100 µM | Malme-3M > 100 µM | NCI-H226 > 100 µM | NCI-H460 > 100 µM | OVCAR-3 > 100 µM | OVCAR-5 > 100 µM | OVCAR-8 > 100 µM | RPMI-8226 > 100 µM | RXF 393 44 µM | RXF 631 > 100 µM | SF-268 > 100 µM | SF-295 > 100 µM | SF-539 > 100 µM | SK-MEL-2 > 100 µM | SK-MEL-5 > 100 µM | SN12C > 100 µM | SNB-19 > 100 µM | SNB-75 > 100 µM | SNB-78 > 100 µM | SW-620 > 100 µM | TK-10 > 100 µM | U-251 > 100 µM | UACC-257 > 100 µM | UACC-62 > 100 µM | UO-31 > 100 µM | XF498 74.5 µM
> 100 µM: HCT-15
